Source: PMC5362808, “Discovery of multi-target receptor tyrosine kinase inhibitors as novel anti-angiogenesis agents” (Scientific Reports, 2017)
pIC50: −log10 of the molar value. Like-named read-outs stand apart in the source and are kept apart here.

Tests used:
EphB4 = target: T1, EphB4 (Homo sapiens, UniProt P54760); test: ADP-Glo kinase inhibition assay, EphB4; assay type: biochemical; conditions: read-out: EphB4 inhibitory activity (IC50)
T1 sequence (P54760 16-987): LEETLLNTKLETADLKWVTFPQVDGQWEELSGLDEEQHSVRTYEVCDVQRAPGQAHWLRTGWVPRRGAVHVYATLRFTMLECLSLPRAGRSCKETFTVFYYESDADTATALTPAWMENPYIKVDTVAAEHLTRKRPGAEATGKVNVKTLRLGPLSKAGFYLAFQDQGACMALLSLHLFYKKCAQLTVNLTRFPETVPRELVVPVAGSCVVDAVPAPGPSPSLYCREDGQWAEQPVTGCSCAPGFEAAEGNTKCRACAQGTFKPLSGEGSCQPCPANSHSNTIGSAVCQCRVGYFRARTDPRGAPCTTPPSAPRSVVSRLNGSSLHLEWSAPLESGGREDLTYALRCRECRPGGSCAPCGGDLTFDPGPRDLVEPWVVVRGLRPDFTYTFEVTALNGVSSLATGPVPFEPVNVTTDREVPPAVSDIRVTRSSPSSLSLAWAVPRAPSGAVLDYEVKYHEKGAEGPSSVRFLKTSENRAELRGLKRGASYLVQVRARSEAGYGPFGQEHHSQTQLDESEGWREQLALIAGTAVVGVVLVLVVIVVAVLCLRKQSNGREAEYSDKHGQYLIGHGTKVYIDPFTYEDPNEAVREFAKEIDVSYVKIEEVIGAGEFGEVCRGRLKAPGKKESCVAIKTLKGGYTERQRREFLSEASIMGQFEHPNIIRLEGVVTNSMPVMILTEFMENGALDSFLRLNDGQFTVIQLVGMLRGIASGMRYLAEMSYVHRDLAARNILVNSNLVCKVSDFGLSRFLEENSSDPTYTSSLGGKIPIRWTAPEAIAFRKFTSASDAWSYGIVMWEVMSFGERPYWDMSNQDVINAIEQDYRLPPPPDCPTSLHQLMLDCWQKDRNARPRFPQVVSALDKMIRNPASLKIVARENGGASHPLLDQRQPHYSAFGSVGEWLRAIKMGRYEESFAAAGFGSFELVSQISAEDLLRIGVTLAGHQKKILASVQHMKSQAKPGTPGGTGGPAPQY
Description: (§1) Tyrosine kinase inhibition were tested by luminescent ADP-Glo^TM assay.
(§2) The kinase assay was performed in duplicate in a reaction mixture of final volume of 10 μL. […] The assay plate was incubated at 30 °C for 1 h. After the plate was cooled at room temperature for 5 min, 5 μL of ADP-Glo reagent was added into each well to stop the reaction and consume the remaining […] within 40 min. At the end, 10 μL of kinase detection reagent was added into the well and incubated for 30 min to produce a luminescence signal. […] The assay plate was incubated at 30 °C for 4 h. After the plate was cooled at room temperature for 5 min, 5 μL of ADP-Glo reagent was added into each well to stop the reaction and consume the remaining […] within 1 h. At the end, 10 μL of kinase detection reagent was added into the well and incubated for 30 min to produce a luminescence signal. The luminescence was read by VICTOR-X multi- label plate reader. The signal was correlated with the amount of […] present in the reaction and was […] with the kinase activity.

TIE-2 = TIE-2 (Homo sapiens, UniProt Q02763); test: ADP-Glo kinase inhibition assay, TIE-2; assay type: biochemical
Description: as §1, §2

VEGFR-2 = VEGFR-2 (Homo sapiens, UniProt P35968); test: ADP-Glo kinase inhibition assay, VEGFR-2; assay type: biochemical; conditions: read-out: VEGFR-2 inhibitory activity (IC50)
Description: as §1, §2

EA.hy926 = test: MTT anti-proliferative assay against human vascular endothelial cell; assay type: cell-based; conditions: EA.hy 926, 48 h treatment
Description: Growth inhibitory activities were evaluated against human vascular endothelial cell (EA.hy926)[25]. Thirteen selected title compounds were tested using MTT assay to assess cell proliferation. Exponentially growing cells were harvested and plated in 96-well plates at a concentration of […] cells/well, and then incubated for 24 h at 37 °C. The cells were treated with title compounds respectively at various concentrations for 48 h. Then, […] fresh MTT (5 mg/mL) was added to each well and incubated for 4 h at 37 °C. Supernatant was discarded, and […] DMSO was added to each well. Absorbance values were determined by a microplate reader (Bio-Rad Instruments) at 490 nm. The IC50 values were calculated according to inhibition ratios.

Src = Src (Homo sapiens, UniProt P12931); test: Kinase selectivity assay, Src; assay type: biochemical; conditions: Table 3 selectivity profile
[1] = system: mouse lung tissue blood vessels; test: Tissue model for angiogenesis (TMA), lung tissue vessel sprouting; conditions: 15.6 μM; observed on the 5th day
Description: A novel tissue model for angiogenesis that imitated new blood vessels formation in vivo had been established in the previous study.
Figure 8 Anti-angiogenesis potency of compound CDAU-2 in tissue model for angiogenesis (TMA). (A–F) the representative images of lung tissue blood vessels in the TMA on the 5th day; (A) the untreated control group; (B–F) lung tissue vessels in the CDAU-2 treated group; (B) 1.94 μM; (C) 3.87 μM; (D) 7.75 μM; (E) 15.6 μM; (F) 62.5 μM.
In brief, the mouse lung tissue was separated and cut into pieces (0.5–1.0 mm^3)[27]. Then pieces of lung tissue were placed onto 48-well plate coated with polymerized fibrinogen with thrombin. After consolidation, each group was incubated with 200 μL/well 1640 medium containing different concentrations of CDAU-2. Control groups were incubated with 2.5% DMSO or 1640 medium alone.

B-Raf = B-Raf (Homo sapiens, UniProt P15056); test: Kinase selectivity assay, B-Raf; assay type: biochemical; conditions: Table 3 selectivity profile
EGFR = EGFR (Homo sapiens, UniProt P00533); test: Kinase selectivity assay, EGFR; assay type: biochemical; conditions: Table 3 selectivity profile
FGFR-1 = FGFR-1 (Homo sapiens, UniProt P11362); test: Kinase selectivity assay, FGFR-1; assay type: biochemical; conditions: Table 3 selectivity profile
[2] = Table 1, ATP 50 μM, read-out: Tie-2 inhibitory activity (IC50)
[3] = Table 2, ATP 50 μM, read-out: TIE-2 inhibitory activity (IC50)

TIE-2, sequence (Q02763 23-1124): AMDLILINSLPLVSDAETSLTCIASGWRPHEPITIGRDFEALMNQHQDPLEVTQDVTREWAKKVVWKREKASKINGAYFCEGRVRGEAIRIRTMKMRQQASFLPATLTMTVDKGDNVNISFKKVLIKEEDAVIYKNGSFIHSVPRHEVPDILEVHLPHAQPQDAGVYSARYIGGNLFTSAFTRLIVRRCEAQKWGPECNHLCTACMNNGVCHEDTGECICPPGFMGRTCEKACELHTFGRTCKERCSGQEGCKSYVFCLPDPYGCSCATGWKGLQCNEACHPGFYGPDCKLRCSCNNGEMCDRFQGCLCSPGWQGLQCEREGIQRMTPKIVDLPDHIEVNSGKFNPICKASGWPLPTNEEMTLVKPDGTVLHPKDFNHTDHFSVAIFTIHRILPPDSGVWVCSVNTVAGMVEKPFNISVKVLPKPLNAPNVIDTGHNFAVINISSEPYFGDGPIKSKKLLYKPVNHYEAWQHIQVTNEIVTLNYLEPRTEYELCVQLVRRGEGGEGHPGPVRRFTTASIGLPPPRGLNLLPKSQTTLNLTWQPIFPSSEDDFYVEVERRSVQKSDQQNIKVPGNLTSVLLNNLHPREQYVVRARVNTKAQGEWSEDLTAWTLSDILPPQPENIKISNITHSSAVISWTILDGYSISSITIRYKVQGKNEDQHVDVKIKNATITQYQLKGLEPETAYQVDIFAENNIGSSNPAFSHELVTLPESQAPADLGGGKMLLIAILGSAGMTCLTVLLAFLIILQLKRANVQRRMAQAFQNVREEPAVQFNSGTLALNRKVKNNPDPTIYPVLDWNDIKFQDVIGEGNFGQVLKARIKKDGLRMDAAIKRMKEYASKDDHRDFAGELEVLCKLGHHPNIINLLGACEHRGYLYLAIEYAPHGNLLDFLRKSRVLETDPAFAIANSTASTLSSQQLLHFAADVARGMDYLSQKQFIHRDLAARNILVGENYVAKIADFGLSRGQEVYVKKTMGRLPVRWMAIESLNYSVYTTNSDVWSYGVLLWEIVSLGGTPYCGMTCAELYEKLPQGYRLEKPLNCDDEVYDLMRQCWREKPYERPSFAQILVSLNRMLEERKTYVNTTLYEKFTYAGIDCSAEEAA
VEGFR-2, sequence (P35968 20-1356): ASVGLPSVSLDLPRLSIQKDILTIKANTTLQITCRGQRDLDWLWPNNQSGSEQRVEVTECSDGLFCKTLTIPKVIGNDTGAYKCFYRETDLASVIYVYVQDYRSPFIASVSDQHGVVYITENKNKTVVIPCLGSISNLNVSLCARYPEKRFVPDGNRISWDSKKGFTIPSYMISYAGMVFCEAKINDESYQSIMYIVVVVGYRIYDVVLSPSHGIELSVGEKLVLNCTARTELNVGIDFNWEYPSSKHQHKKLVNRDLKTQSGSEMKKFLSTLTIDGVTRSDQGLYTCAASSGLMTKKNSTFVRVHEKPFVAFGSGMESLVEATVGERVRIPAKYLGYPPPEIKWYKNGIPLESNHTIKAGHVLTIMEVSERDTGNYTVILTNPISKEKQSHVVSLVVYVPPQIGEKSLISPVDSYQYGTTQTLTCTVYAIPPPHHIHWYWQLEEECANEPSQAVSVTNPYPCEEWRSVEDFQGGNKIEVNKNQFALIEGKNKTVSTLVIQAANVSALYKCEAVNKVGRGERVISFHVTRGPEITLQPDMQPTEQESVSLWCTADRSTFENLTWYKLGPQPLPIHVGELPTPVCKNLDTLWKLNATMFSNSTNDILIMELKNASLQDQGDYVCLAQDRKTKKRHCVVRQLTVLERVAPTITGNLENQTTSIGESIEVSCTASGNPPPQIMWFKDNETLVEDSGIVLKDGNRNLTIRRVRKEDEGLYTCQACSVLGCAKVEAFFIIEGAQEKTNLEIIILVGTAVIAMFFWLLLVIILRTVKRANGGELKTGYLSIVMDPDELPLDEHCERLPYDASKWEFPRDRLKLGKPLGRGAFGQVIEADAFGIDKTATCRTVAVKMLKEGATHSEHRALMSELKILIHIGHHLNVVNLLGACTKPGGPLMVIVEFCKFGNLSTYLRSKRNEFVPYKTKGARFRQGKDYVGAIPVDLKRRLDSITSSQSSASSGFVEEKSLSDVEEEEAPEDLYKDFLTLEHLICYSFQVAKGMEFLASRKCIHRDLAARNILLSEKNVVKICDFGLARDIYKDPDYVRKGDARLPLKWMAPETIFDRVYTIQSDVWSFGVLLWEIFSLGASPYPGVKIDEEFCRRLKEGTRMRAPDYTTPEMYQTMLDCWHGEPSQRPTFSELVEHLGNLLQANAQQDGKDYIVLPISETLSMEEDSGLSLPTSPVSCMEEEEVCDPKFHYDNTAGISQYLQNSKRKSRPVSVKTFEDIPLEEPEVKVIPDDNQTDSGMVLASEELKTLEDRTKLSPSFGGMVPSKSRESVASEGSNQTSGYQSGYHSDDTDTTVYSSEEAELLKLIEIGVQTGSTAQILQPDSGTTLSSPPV
EGFR, sequence (P00533 25-1210, species assumed): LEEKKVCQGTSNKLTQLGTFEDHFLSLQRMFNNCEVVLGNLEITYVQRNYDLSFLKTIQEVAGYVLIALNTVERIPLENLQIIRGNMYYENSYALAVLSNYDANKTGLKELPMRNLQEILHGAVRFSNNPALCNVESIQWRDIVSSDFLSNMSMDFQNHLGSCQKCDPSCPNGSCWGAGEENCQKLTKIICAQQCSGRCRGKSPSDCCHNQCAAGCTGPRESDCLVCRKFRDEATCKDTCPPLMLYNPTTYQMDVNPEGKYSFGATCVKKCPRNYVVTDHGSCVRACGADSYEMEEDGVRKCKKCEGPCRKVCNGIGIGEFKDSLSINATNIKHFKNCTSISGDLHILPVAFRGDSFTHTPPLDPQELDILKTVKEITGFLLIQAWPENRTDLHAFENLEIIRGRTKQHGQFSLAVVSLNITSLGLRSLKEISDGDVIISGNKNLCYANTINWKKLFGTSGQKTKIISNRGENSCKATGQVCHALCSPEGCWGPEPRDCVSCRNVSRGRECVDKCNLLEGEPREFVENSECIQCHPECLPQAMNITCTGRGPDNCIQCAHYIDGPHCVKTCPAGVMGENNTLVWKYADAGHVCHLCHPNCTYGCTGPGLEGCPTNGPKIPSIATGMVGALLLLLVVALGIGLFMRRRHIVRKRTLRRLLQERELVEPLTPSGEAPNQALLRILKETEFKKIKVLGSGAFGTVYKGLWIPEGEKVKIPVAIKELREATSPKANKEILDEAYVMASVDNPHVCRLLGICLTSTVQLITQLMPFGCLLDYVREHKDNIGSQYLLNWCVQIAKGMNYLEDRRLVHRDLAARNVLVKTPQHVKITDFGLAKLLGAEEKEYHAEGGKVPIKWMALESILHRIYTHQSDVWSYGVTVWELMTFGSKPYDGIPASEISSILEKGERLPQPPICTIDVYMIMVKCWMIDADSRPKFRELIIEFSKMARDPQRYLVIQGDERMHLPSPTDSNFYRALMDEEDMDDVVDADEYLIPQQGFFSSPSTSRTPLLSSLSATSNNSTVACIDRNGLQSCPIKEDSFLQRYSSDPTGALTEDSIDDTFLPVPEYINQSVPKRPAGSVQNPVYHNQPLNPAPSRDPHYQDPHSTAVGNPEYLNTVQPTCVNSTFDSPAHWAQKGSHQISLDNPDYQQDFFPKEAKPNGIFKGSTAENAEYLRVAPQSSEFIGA
Src, sequence (P12931 whole entry, species assumed): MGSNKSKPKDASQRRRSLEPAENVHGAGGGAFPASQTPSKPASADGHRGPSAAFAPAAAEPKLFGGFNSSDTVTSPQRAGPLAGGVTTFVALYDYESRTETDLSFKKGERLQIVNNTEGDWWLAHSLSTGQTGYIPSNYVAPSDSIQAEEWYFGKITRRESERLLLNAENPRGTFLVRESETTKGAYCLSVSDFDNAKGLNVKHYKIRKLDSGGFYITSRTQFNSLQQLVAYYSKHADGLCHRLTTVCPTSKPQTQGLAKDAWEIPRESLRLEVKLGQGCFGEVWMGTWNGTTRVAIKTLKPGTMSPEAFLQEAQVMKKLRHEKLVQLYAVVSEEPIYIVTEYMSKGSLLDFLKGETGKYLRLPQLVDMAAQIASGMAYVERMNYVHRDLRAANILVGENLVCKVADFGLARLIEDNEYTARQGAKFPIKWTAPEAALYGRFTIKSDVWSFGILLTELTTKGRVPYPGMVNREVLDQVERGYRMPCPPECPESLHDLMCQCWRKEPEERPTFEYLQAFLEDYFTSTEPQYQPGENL
B-Raf, sequence (P15056 whole entry, species assumed): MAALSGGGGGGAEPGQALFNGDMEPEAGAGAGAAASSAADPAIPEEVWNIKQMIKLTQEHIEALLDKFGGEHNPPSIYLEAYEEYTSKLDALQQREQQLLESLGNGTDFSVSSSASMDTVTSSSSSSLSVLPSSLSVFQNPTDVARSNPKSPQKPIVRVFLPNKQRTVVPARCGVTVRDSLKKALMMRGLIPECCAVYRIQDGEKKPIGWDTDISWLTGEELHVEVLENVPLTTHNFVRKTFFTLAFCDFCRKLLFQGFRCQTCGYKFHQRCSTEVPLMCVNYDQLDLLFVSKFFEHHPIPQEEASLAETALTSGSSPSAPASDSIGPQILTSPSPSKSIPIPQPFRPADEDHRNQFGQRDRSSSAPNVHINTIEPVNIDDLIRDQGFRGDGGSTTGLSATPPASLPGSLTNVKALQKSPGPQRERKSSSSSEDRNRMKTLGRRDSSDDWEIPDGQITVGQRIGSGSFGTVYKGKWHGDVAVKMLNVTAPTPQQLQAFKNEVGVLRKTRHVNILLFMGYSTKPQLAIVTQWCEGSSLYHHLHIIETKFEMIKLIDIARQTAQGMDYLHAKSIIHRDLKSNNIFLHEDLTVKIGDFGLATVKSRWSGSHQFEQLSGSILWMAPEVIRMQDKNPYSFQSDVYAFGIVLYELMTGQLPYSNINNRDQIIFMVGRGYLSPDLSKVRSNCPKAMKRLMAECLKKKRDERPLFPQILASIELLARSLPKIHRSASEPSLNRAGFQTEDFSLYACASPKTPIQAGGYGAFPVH

| Structure (SMILES) | pIC50 (EphB4; Table 1, ATP 50 μM) | pIC50 (TIE-2; [2]) | pIC50 (VEGFR-2; Table 1, ATP 50 μM) | pIC50 (EphB4; Table 2, ATP 50 μM) | pIC50 (TIE-2; [3]) | pIC50 (VEGFR-2; Table 2, ATP 50 μM) | pIC50 (EA.hy926) | other results |
| --- | --- | --- | --- | --- | --- | --- | --- | --- |
| CN(C)C(=O)Nc1ccc(-c2ccc(NC(=O)C3CC3)nc2)cc1 [CDAU-11] | < 6.00 | < 6.00 | < 6.00 |  |  |  |  |  |
| O=C(Nc1ccc(OC(F)(F)F)cc1)Nc1ccc(-c2ccc(NC(=O)C3CC3)nc2)cc1 [CDAU-8] | < 6.00 | < 6.00 | < 6.00 |  |  |  |  |  |
| CC(C)(C)c1ccc(NC(=O)Nc2ccc(-c3cccc(NC(=O)C4CC4)n3)cc2)cc1 [CDAU-15] |  |  |  |  | < 6.00 | 7.55 |  |  |
| O=C(Nc1ccc(F)cc1)Nc1ccc(-c2cccc(NC(=O)C3CC3)n2)cc1 [CDAU-14] |  |  |  | < 6.00 | 7.48 |  |  |  |
| O=C(Nc1ccc(-c2ccc(NC(=O)C3CC3)nc2)cc1)Nc1ccc(Cl)c(C(F)(F)F)c1 [CDAU-2] | 8.29 | 8.08 | 9.00 |  |  |  | 4.84 | pIC50 (Src): < 6.30; Anti-angiogenesis potency: inhibition of vessel outgrowth from lung tissue [1]: inhibited vessels outgrew from the periphery of the lung tissues evidently; pIC50 (B-Raf): 7.46; pIC50 (EGFR): 6.72; pIC50 (FGFR-1): 6.50 |
| CC(C)c1cccc(NC(=O)Nc2ccc(-c3cccc(NC(=O)C4CC4)n3)cc2)c1 [CDAU-17] |  |  |  | 6.77 |  | 7.20 | 3.88 |  |
| O=C(Nc1ccc(-c2cccc(NC(=O)C3CC3)n2)cc1)Nc1ccccc1Cl [CDAU-16] |  |  |  | < 6.00 | < 6.00 | 7.13 |  |  |
| O=C(Nc1ccc(-c2cccc(NC(=O)C3CC3)n2)cc1)Nc1ccc(F)cc1F [CDAU-22] |  |  |  |  | < 6.00 | < 6.00 |  |  |
| O=C(Nc1ccc(-c2ccc(NC(=O)C3CC3)nc2)cc1)Nc1ccc(C(F)(F)F)c(Cl)c1 [CDAU-5] | < 6.00 | 7.21 | 8.26 |  |  |  | 3.82 |  |
| CC(C)(C)NC(=O)Nc1ccc(-c2ccc(NC(=O)C3CC3)nc2)cc1 [CDAU-9] | < 6.00 | 6.07 | < 6.00 |  |  |  |  |  |
| O=C(Nc1ccc(-c2cccc(NC(=O)C3CC3)n2)cc1)Nc1ccccc1F [CDAU-23] |  |  |  |  | < 6.00 | < 6.00 |  |  |
| O=C(Nc1ccc(-c2cccc(NC(=O)C3CC3)n2)cc1)Nc1ccc(Cl)cc1Cl [CDAU-20] |  |  |  |  | 7.10 | 7.37 | 4.34 |  |
| O=C(Nc1ccc(-c2ccc(NC(=O)C3CC3)nc2)cc1)Nc1ccc(C(F)(F)F)c(C(F)(F)F)c1 [CDAU-3] | < 6.00 | 7.56 | 8.70 |  |  |  | 3.51 | melting point: 241 to 243 °C |
| Cc1cccc(C)c1NC(=O)Nc1ccc(-c2cccc(NC(=O)C3CC3)n2)cc1 [CDAU-25] |  |  |  | < 6.00 | < 6.00 |  |  |  |
| O=C(Nc1ccc(-c2cccc(NC(=O)C3CC3)n2)cc1)Nc1ccc(Cl)c(C(F)(F)F)c1 [CDAU-12, N-(6-(4-(3-(4-chloro-3-(trifluoromethyl)phenyl)ureido)phenyl)pyridin-2-yl)cyclopropanecarboxamide] |  |  |  | < 6.00 | < 6.00 | < 6.00 |  |  |

The next lines start with results.

| pIC50 (EphB4; Table 1, ATP 50 μM) | pIC50 (TIE-2; [2]) | pIC50 (VEGFR-2; Table 1, ATP 50 μM) | pIC50 (EphB4; Table 2, ATP 50 μM) | pIC50 (TIE-2; [3]) | pIC50 (VEGFR-2; Table 2, ATP 50 μM) | Structure (SMILES) | pIC50 (EA.hy926) | other results |
| --- | --- | --- | --- | --- | --- | --- | --- | --- |
|  |  |  | < 6.00 | 6.57 | < 6.00 | Cc1ccc(NC(=O)Nc2ccc(-c3cccc(NC(=O)C4CC4)n3)cc2)cc1Cl [CDAU-13] |  |  |
| < 6.00 | < 6.00 | < 6.00 |  |  |  | O=C(Nc1ccc(-c2ccc(NC(=O)C3CC3)nc2)cc1)Nc1ccccc1F [CDAU-7] | 4.34 |  |
|  |  |  | < 6.00 | 8.31 |  | O=C(Nc1ccc(-c2cccc(NC(=O)C3CC3)n2)cc1)Nc1cccc(Cl)c1 [CDAU-18] | 4.65 |  |
| < 6.00 | < 6.00 | < 6.00 |  |  |  | CN(C)CCNC(=O)Nc1ccc(-c2ccc(NC(=O)C3CC3)nc2)cc1 [CDAU-10] | < 3.00 |  |
|  |  |  |  | < 6.00 | < 6.00 | O=C(Nc1ccc(-c2cccc(NC(=O)C3CC3)n2)cc1)Nc1cccc(F)c1 [CDAU-24] |  |  |
| 6.02 | 7.48 | 7.63 |  |  |  | O=C(Nc1ccc(-c2ccc(NC(=O)C3CC3)nc2)cc1)Nc1cccc(Cl)c1 [CDAU-6] | 3.06 |  |
|  | < 6.00 | 8.85 |  |  |  | O=C(Nc1ccc(-c2ccc(NC(=O)C3CC3)nc2)cc1)Nc1ccc(F)c(F)c1 [CDAU-4] | 4.07 |  |
|  |  |  | < 6.00 |  | 7.47 | O=C(Nc1ccc(OC(F)(F)F)cc1)Nc1ccc(-c2cccc(NC(=O)C3CC3)n2)cc1 [CDAU-19] | 4.51 |  |
| 8.27 | 8.14 | 8.95 |  |  |  | O=C(Nc1ccc(-c2ccc(NC(=O)C3CC3)nc2)cc1)Nc1cccc(C(F)(F)F)c1 [CDAU-1, N-(5-(4-(3-(3-(trifluoromethyl)phenyl)ureido)phenyl)pyridin-2-yl)cyclopropanecarboxamide] | 4.79 | melting point: 270 to 272 °C; pIC50 (Src): < 6.30; pIC50 (B-Raf): 7.24; pIC50 (EGFR): 6.69; pIC50 (FGFR-1): 6.81 |
|  |  |  | 6.79 | 7.37 | 8.20 | O=C(Nc1ccc(-c2cccc(NC(=O)C3CC3)n2)cc1)Nc1cccc(C(F)(F)F)c1 [CDAU-21] | 4.39 |  |
